Experimental data from US20160257931A1, “METHOD FOR CULTURE OF CORNEAL ENDOTHELIAL CELLS, PROCESS FOR PRODUCTION OF CORNEAL ENDOTHELIAL CELL SHEET FOR TRANSPLANTATION PURPOSES, AND CULTURE KIT FOR CORNEAL ENDOTHELIAL CELLS” (CORNEA REGENERATION INSTITUTE CO., LTD., priority 2010, published 2016).

Experiments:
Format in all cases: cell-based
[1] = system: human corneal endothelial cell; experiment: Subculture of corneal endothelial cells (passage stability)
Protocol: The primary cultured cells (10 donors, 14- to 69-year-old) obtained in the above-mentioned 1 were each subcultured as follows.
The primary cultured cells were washed with PBS and dispersed in 0.5% trypsin/0.2% EDTA. The basal medium was added thereto, the mixture was centrifuged (500 g, 5 min), and suspended in the basal medium containing 100 μg/ml ascorbyl 2-phosphate and comparison basal medium without containing the same. The cells were seeded at 1000 cells/cm^2 on a dish coated with atelocollagen, which was prepared in the same manner as in the above-mentioned 1, and cultured at 37° C., 5% CO2. When the cells reached confluence, a similar passage operation was repeated.

[2] = system: human corneal endothelial cell; experiment: Primary culture of corneal endothelial cells in the presence of ascorbyl 2-phosphate; conditions: for Number of obtained cells in primary culture: Asc-2P(+) 100 μg/ml in basal medium, atelocollagen-coated dish
Protocol: Sclerocorneal segments prepared from 10 examples obtained from human eyes (from 14 to 69 years old) from Rocky Mountain Lions Eye Bank in a low temperature preservation state in a preservation solution (trade name: Optisol manufactured by Chiron corporation). The segments were 6 to 8 days old after death.
The sclerocorneal segments were transferred into a 35 mm petri dish, and the endothelial face was washed with DME medium containing 15% fetal calf serum (FCS) and 2 ng/ml basic fibroblast growth factor (bFGF) (hereinafter to be indicated as the basal medium).
Using ultrafine forceps, the corneal endothelium was peeled off in a sheet with the Descemet's membrane from the corneal inner periphery to the center and transferred into a 35 mm petri dish. The Descemet's membrane segment to which the corneal endothelial cells were attached was further cut into small pieces of about 2 mm square on the petri dish, and only the Descemet's slice pieces without attachment of a parenchymal tissue in a cottony form were recovered in a low adsorption centrifugation tube (manufactured by SUMITOMO BAKELITE Co., Ltd.), and incubated in the basal medium containing 0.2% collagenase (trade name: collagenase A, collagenase activity: >0.15 U/mg, manufactured by Roche K.K.) at 37° C., 5% CO2 for 1-3 hr.
The collagenase-treated cells were diluted with the basal medium, centrifugal washing (20 g, 2 min) was repeated three times, and the cells floating in the supernatant were removed. The cells were diluted with phosphate buffered saline (PBS), and centrifugal washing (20 g, 2 min) was performed once in the same manner. 0.5% Trypsin/0.2% ethylenediamine tetraacetic acid (EDTA) was added to the precipitated cell mass, and the mixture was incubated at 37° C., 5% CO2 for 5 min. The basal medium was added and the mixture was centrifuged (500 g, 5 min) to give cell pellets. The obtained cell pellets were resuspended in the basal medium containing 100 μg/ml ascorbyl 2-phosphate (manufactured by Wako Pure Chemical Industries, Ltd.) and the comparison basal medium without containing the same. The cells were each seeded on a dish prepared by the following method, and cultured in an incubator at 37° C., 5% CO2 for 2-4 weeks while exchanging the medium every 2-3 days.
5 mg/ml Atelocollagen (bovine dermis-derived acidic collagen solution, trade name: IAC-50, manufactured by KOKEN CO., LTD) was diluted 100-fold with 10 mM acetic acid, 1 ml thereof was added to a 35 mm dish, left standing at 37° C. for 1 hr, and washed twice with PBS (2 ml) to prepare a dish coated with atelocollagen.

[3] = system: human corneal endothelial cell; experiment: Comparison with the conventional culture method on bovine corneal endothelial cell-producing extracellular substrate; conditions: FIG. 3
Description: According to a conventionally-known method (Miyata K, Drake J, Osakabe Y, Hosokawa Y, Hwang D, Soya K, Oshika T, Amano S. Cornea. 2001 20:59-63), a human corneal endothelial cell was isolated and cultured. The method is briefly described in the following. The cornea was transferred into a 35 mm petri dish, and the endothelial face was washed with the basal medium. Using ultrafine forceps, the corneal endothelium was peeled off in a sheet with Descemet's membrane from the corneal inner periphery to the center, and transferred into a 35 mm petri dish. The Descemet's membrane was further cut into small slice pieces of about 2 mm square on the petri dish, and placed with the endothelial surface facing downward on a dish coated with an extracellular substrate produced by corneal endothelial cells of a fetal calf. The dish was carefully moved into an incubator at 37° C., 5% CO2, and cultured for 2-3 weeks while exchanging the medium every 2-3 days.
In any passage, more cells were obtained in the ascorbyl 2-phosphate addition group, and the total cell number reached after completion of the three passage operations was higher when cultured in the basal medium containing ascorbyl 2-phosphate.

What does the source list for `O=C1O[C@H]([C@@H](O)CO)C(O)=C1OP(=O)(O)O` [Asc-2P, ascorbyl 2-phosphate]?
Number of cells obtained on completion of the subculture, versus no addition ([1]; all 10 cases, 100 μg/ml, seeded at 1000 cells/cm^2, repeated subculture): higher; Number of cells obtained on repeated subculture, addition group versus non-addition group ([1]; donor No. 8, FIG. 2 (a), (b)): higher; Cell form on completion of 6 passages ([1]; donor No. 8, FIG. 2 (c)): maintained a flagstone-like form; Number of obtained cells in primary culture ([2]; donor No. 1, 27 days of culture): 59 ×10e4 cells; Number of obtained cells in primary culture ([2]; donor No. 2, 21 days of culture): 32 ×10e4 cells; Number of obtained cells in primary culture ([2]; donor No. 3, 21 days of culture): 35 ×10e4 cells; Number of obtained cells in primary culture ([2]; donor No. 4, 22 days of culture): 39 ×10e4 cells; Number of obtained cells in primary culture ([2]; donor No. 5, 26 days of culture): 66 ×10e4 cells; Number of obtained cells in primary culture ([2]; donor No. 6, 22 days of culture): 27 ×10e4 cells; Number of obtained cells in primary culture ([2]; donor No. 7, 26 days of culture): 60 ×10e4 cells; Number of obtained cells in primary culture ([2]; donor No. 8, 23 days of culture): 308 ×10e4 cells; Number of obtained cells in primary culture ([2]; donor No. 9, 24 days of culture): 405 ×10e4 cells; Number of obtained cells in primary culture ([2]; donor No. 10, 29 days of culture): 20 ×10e4 cells; Number of corneal endothelial cells on completion of the primary culture, versus no addition ([2]; all 10 donors (14 to 69 years old), 100 μg/ml): strikingly increased; Cell form in primary culture ([2]; donor Nos. 5 and 7, basal medium containing ascorbyl 2-phosphate): flagstone-like cell images on the entire face of the culture dish; Proliferation efficiency versus conventional method [3]: higher proliferation efficiency; Total cell number reached after completion of the three passage operations, versus conventional method ([3]; atelocollagen plus ascorbyl 2-phosphate versus bovine corneal endothelial cell-producing extracellular substrate): higher
